Results taken from US20140076194A1, “ANTIFOULING BY ADHESION SUPPRESSION” (PURDUE RESEARCH FOUNDATION, priority 2011, published 2014).

Columns and labels:
[1] = tested on: mussel; assay: Mussel plaque adhesion to coated plates (Instron tensile pull of individual plaques); format: in vivo; design: Total Animal Removal Force: unit not given here; details: for total animal removal force (in words): Tables 4A and 4B, upon addition of antioxidant, versus DBT control; for mussel adhesion (in words): antioxidant or reducing agent in coating; for force to detach animal: estimated from number of plaques and adhesion per plaque, primer control ~5.6 N; for # of plaques (average): primer control 11.3
From the text: In order to obtain insights on the antifouling potential of a given coating, we would benefit from a rapid laboratory method to quantify adhesion. Coatings that show decreased adhesion in such a laboratory test can then be sent to other investigators for assays with different organisms as well as field testing. We have recently developed a method for determining the adhesion strength of mussels to surfaces. The adhesive system of mussels lends itself well to precise force measurements. Mussels are placed on a candidate coating for adhesive deposition. The area (m^2) of each plaque is determined by digital photography and use of image analysis software. Individual plaques are then pulled from the surface using clamps in an Instron materials testing system (as illustrated in FIG. 3). […] Beyond simply looking for new antifouling coatings to decrease mussel adhesion, we also take note of the adhesive failure modes on new coatings versus controls. […] Thread breakage is also possible but minimized to nearly zero with our adhesion method. When mussels adhere strongly to a given surface, more cohesive failure is often observed or a mix of both cohesive and adhesive failure. If we inhibit curing of the glue with radical inhibitors on the surface, we may find that more adhesive or cohesive failure is observed. Overall, use of this mussel adhesion assay provides quantitative data on the ability of a candidate antifouling coating to inhibit bioadhesion. Here we will use this assay on each coating. Coatings that decrease mussel adhesion substantially will be carried on to further testing. As an operative example, the animal adheres to a given surface (e.g., aluminum plate). […] The animal is removed by cutting the connecting threads at the shell line. At this point, we are left with the surface, an adhesive plaque, and the thread. Adhesion forces must be normalized for surface contact area. Complete adhesion measurement methods includes obtaining data on the plaque-surface contact area. Mussel plaques are typically not perfect circles or ovals. The small size (approximately 2 mm diameter) and irregular shape may complicate obtaining accurate areas. Prior to adhesive testing, a photograph is taken of the plaque. A Nikon (Melville, N.Y., USA) […] digital camera fitted with a Nikon 50 mm f-1.8 lens and a Kenko 12 mm extension tube is held on a small tripod while the lens is oriented directly onto the plate below. The lens is approximately 18 cm above the plates being photographed. Typical exposure settings include f=3.5, 1/15 second shutter speed, and 200 ISO. Ambient light should be sufficient to capture the images. Photographs are taken in JPEG format at maximum resolution ( 3.3 MB per image). Individual plaques are numbered using a marker prior to taking the photograph so that the numbers are included in the image. These labels allow correlation of specific plaques to tensile strength data. At the time of photographing the plaques, area standards are also photographed. The digital images of the plates can be later revisited for calculating surface area. Image analysis software counts pixels within the plaque, relative to a standard, to provide area (m^2). […] Plates bearing plaques and threads are clamped to the base of the Instronl 5544 materials testing system. A custom designed stainless steel base is fabricated for these experiments. The base is a circular platform 15 cm in diameter with a post and pinhole on the bottom, allowing bolting into the bottom mount of the Instron. Test plates with adhesive are fastened to this base with two Quick-Grip Handi Clamps (Wilmington, Ohio, USA) holding down opposite corners. The Instron is fitted with one screw-action grip (part 2710-004) on the top and a 5N load cell. Detachment force measurements begin by lowering the grips directly over an individual plaque. The thread is lifted by hand and is placed in between the grips. The grips are then tightened over the thread. […]

[2] = Water contact angle of coatings; format: physicochemical; details: metal primer coating with BHT; metal primer coating alone approximately 106°
Method: In some cases added solvent helps the dissolution. We use the same solvent already in the commercial coating (e.g., xylenes or acetone). After curing is complete, the resulting coating is inspected and compared to the control of a similar coating without the adhesion inhibitor. If we observe a lack of curing, crystallization of inhibitors on the surface, lower coating modulus, or color changes the formulation may be discarded from consideration. Water contact angles are then measured for both the coatings and all controls (e.g., coating without inhibitor). Typically the coatings have very similar water contact angles as the controls (e.g., similar to within ˜5°). Large differences in contact angles will also lead to discarding a candidate antifouling formulation. A further narrowing of candidate coatings then takes place. We examine water contact angles (i.e., surface energy) of the evaporative coatings with an antioxidant versus without an added inhibitor. Any coatings with added inhibitor that changes water contact angle by more than 5° may be eliminated from further testing. […] It is envisioned that these modifications are not indicative of whether a particular reductive coating is an effective antifouling coating. […] As part of this selection process, we have approximately twenty (20) coatings to examine, into which we could place approximately eight (8) different antioxidants.

[3] = 2.5% additive in primer, Table 4B
[4] = 25% additive in primer, Table 4A
[5] = 25% additive in primer, Table 4C, recent data with variations versus Table 4A
[6] = Coating: 2.5% (w/w), Table 5B, FIG. 6
[7] = Coating: 25% (w/w), Table 5A, FIG. 5
[8] = primer + 2.5% BHT (w/w) coating, Table 3
[9] = primer + 25% BHT (w/w) coating, Table 3

SMILES	% Adhesive Failure [1, 3]	Adhesive Failure [1, 3]	Mean Adhesion [1, 3]	Plaques/Mussel [1, 3]	Total Animal Removal Force [1, 3]	% Adhesive Failure [1, 4]	Adhesive Failure [1, 4]	Mean Adhesion [1, 4]	Plaques/Mussel [1, 4]	Total Animal Removal Force [1, 4]	Adhesion [1, 5]	Average Force [1, 5]	Average Adhesion (kPa) with 99% CI [1, 6]	Average Adhesion (kPa) with 99% CI [1, 7]	total animal removal force (in words) [1]	mussel adhesion (in words) [1]	also measured
CCOc1ccc2c(c1)C(C)=CC(C)(C)N2 [6-ethoxy, 6-ethoxy-1,2-dihydro-2,2,4-trimethylquinoline]	90.9%	33.6 kPa	33.9 kPa	22.3	749	76.4%	33.7 kPa	34.6 kPa	18.4	620	21.23 kPa	0.0948 N	82.60 ± 4.42 kPa	58.22 ± 6.73 kPa	decreases significantly	reduce mussel adhesion	
Cc1cc(C(C)(C)C)c(O)c(C(C)(C)C)c1 [BHT, butylated hydroxytoluene]	66.7%	41.5 kPa	41.5 kPa	17.4	722	44.7%	37.0 kPa	39.5 kPa	11.1	411	37.08 kPa	0.1894 N	87.82 ± 4.98 kPa	90.24 ± 6.84 kPa	decreases significantly		water contact angle [2]: approximately 108 °; average mussel adhesion (in words) ([1]; 2.5% and 25% BHT-in-primer coatings versus primer-only controls): decreases significantly; total force needed to remove a mussel (in words) ([1]; BHT in the coating, number of plaques combined with adhesion per plaque): drops by up to half; adhesive produced by the animals (in words) ([1]; BHT-containing panels versus primer-only controls): produce less adhesive; force to detach animal [1, 8]: ~3.4 N; # of plaques (average) [1, 8]: 9.6 plaques; Adhesion ([1]; primer + 2.5% BHT (w/w) coating, Table 3, primer control 184 ± 68 kPa): 135 ± 58 kPa; force to detach animal [1, 9]: ~2.2 N; # of plaques (average) [1, 9]: 5.2 plaques; Adhesion ([1]; primer + 25% BHT (w/w) coating, Table 3, primer control 184 ± 68 kPa): 110 ± 43 kPa
Cc1cc(C(C)(C)C)c(C)c(C(C)(C)C)c1 [DBT, reference compound]	7.0%	49.3 kPa	45.8 kPa	24.1	1430	31.6%	57.3 kPa	53.1 kPa	17.2	986	47.07 kPa	0.2198 N	80.31 ± 5.08 kPa	106.34 ± 6.74 kPa			
CC(C)(C)c1cccc(O)c1C(C)(C)C [DTBP, 2,3-di-tert-butylphenol]	17.6%	56.9 kPa	66.5 kPa	30	1707	70.7%	40.4 kPa	42.0 kPa	16.9	683	34.11 kPa	0.1902 N	89.88 ± 8.45 kPa	82.63 ± 5.24 kPa	decreases significantly	reduce mussel adhesion	
COc1ccccc1 [anisole]	21.1%	42.0 kPa	39.7 kPa	20.1	844	54%	56.8 kPa	59.1 kPa	17.4	988	33.53 kPa	0.1686 N	90.03 ± 8.16 kPa	75.02 ± 5.39 kPa	decreases significantly	reduce mussel adhesion	
CC(=O)C(=O)O [pyruvic acid]																reduce mussel adhesion	
